Laboratory results reported in ChEMBL document CHEMBL1201862, “PubChem BioAssay data set” (2004).
Calls of active or inactive are those of the source.

Assays:
[1] = target: T1, Caspase-6 (Homo sapiens, UniProt P55212); assay: human caspase-6 inhibitors, dose response, biochemical, VEID-R110 fluorescence, cherry-pick (AID 720632)
T1 sequence (P55212 whole entry): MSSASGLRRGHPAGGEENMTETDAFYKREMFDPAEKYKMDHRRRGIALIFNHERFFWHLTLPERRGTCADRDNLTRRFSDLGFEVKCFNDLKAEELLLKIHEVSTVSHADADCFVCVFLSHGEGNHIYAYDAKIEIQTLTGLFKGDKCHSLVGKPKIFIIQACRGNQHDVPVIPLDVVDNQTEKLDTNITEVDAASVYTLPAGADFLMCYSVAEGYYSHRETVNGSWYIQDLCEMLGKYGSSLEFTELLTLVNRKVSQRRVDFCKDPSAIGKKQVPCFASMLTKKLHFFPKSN

[2] = ADAM10 protease inhibitors, dose response, selectivity assay for ADAM17 exosite inhibitor project, biochemical, FRET peptide substrate, recombinant human ADAM10 (AID 743259);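 further: ADAM10 enzyme cleaving a FRET peptide substrate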
[3] = target: Disintegrin and metalloproteinase domain-containing protein 17 (Homo sapiens, UniProt P78536); assay: exosite inhibitors of ADAM17, dose response, biochemical (AID 743260)
Sequence of Disintegrin and metalloproteinase domain-containing protein 17 (P78536 whole entry, the tested form may be a part): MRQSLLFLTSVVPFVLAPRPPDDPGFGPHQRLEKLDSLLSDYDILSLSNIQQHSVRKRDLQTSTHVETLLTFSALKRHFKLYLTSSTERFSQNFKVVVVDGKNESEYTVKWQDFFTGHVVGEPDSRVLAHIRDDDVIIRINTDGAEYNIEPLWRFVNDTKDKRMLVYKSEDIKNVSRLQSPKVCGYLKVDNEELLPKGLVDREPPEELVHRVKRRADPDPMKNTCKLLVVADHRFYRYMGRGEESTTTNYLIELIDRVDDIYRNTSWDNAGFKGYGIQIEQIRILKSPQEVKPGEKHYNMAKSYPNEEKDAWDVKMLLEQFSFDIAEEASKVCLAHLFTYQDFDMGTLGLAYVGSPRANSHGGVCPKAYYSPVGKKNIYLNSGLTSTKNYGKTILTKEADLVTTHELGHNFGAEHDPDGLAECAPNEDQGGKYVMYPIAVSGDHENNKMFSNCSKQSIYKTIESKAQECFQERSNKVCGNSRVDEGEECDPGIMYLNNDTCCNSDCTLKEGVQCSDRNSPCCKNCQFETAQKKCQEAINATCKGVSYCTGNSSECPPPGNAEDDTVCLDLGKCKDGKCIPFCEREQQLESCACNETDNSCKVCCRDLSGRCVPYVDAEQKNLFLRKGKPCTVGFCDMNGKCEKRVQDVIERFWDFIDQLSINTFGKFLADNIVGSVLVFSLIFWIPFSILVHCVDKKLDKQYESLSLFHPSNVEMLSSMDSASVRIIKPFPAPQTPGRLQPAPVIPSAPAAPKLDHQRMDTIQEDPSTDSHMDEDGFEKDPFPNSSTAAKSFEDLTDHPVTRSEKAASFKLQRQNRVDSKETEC

[4] = inhibitors of PGC1a acetylation in cells, dose response, cell-based, cherry-picked samples (AID 720514); assay type: functional;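 further: potency may reflect raised or lowered acetylation signal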
[5] = target: NAD-dependent protein deacylase sirtuin-5, mitochondrial (Homo sapiens, UniProt Q9NXA8); assay: SIRT5 desuccinylase inhibitors, dose response, biochemical, fluorescence imaging, cherry-pick, set 5 (AID 720591);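 further: desuccinylation of succinyl peptide AMC substrate read as fluorescence after trypsin release; potency of inhibitors that lower fluorescence and may act on trypsin instead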
Sequence of NAD-dependent protein deacylase sirtuin-5, mitochondrial (Q9NXA8 whole entry): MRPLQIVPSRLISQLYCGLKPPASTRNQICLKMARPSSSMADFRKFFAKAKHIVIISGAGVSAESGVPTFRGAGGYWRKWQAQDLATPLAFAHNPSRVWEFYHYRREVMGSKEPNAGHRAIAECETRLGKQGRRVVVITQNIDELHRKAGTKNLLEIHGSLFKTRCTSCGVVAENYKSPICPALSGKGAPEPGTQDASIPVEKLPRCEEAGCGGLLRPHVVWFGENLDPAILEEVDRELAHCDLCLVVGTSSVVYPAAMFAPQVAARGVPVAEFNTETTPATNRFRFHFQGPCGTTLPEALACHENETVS

[6] = target: Protein-tyrosine kinase 2-beta (Homo sapiens, UniProt Q14289);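 further: potency of inhibitors of PYK2 kinase phosphorylation of poly-GT substrate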
Sequence of Protein-tyrosine kinase 2-beta (Q14289 whole entry): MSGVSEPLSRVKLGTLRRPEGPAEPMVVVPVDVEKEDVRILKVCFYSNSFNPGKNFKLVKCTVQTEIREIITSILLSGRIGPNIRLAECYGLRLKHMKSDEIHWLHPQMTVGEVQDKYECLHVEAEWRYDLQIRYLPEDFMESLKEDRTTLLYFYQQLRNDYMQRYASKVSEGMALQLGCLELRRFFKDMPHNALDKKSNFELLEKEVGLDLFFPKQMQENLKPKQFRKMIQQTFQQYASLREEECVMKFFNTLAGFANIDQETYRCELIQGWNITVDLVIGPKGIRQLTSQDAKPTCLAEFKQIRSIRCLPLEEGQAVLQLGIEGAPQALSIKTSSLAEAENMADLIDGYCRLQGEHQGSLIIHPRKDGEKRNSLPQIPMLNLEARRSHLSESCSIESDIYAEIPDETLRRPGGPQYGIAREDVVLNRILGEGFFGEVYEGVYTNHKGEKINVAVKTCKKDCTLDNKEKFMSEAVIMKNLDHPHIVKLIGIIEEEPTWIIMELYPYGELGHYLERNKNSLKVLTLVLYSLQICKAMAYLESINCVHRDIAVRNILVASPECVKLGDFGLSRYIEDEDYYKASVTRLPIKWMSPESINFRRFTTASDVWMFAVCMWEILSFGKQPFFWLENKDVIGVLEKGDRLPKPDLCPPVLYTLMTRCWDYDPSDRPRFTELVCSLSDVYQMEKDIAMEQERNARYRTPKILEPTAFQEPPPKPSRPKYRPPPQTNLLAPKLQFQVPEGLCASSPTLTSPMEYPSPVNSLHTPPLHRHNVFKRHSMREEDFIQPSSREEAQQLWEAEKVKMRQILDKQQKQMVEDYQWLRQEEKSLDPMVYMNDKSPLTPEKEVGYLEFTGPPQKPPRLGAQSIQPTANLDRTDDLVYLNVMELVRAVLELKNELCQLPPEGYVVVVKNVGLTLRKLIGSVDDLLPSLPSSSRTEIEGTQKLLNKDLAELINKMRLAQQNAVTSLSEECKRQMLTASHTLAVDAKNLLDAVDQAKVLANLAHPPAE

[7] = Shn3 3'UTR reporter inhibitors, dose response, cell-based, Clone20 osteoblasts, firefly luciferase, cherry-picked (AID 624132); assay type: functional;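 further: firefly luciferase luminescence from reporter carrying the Shn3 3'UTR in osteoblasts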
[8] = Luminescence Cell-Based Dose Response HTS to Identify Inhibitors of 5'UTR Stem-Loop Driven Prion Protein mRNA Translation in H4 Neuroglioblastoma Cells. [Related pubchem assays: 1827 (Project Summary), 1813 (Primary HTS)]; assay type: functional
[9] = inhibitors of SNCA 5'UTR-driven reporter translation, confirmation, H4 neuroglioma cells, luminescence (AID 1988); assay type: functional, cell-based
[10] = HepG2 cell cytotoxicity, dose response, cytotoxicity control for Shn3 inhibitor project, CellTiter-Glo, cherry-picked (AID 624134); assay type: functional, cell-based
[11] = inhibitors of firefly luciferase expression or activity, dose response, H4 neuroglioma cells, luminescence (AID 1990); assay type: functional, cell-based
[12] = inhibitors of Vif binding to APOBEC3G peptide, primary screen, biochemical, TR-FRET, GST-Vif 1-94, biotin-A3G peptide, dose response retest (AID 1117319); assay type: functional;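 further: TR-FRET signal of purified GST-Vif binding a biotinylated A3G peptide; inhibitors lower the FRET signal by blocking Vif and A3G binding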
[13] = Luminescence Cell-Based Dose Confirmation to Identify Activators of 5'UTR Stem-Loop Driven Alpha-Synuclein mRNA Translation in H4 Neuroglioblastoma Cells. [Related pubchem assays: 1829 (Project Summary), 1814 (Primary HTS)]; assay type: functional
[14] = Luminescence Cell-Based Dose Response to Identify Activators of Luciferase Translation or Activity in H4-C Neuroglioblastoma Cells. [Related pubchem assays: 1829 (Project Summary), 1814 (Primary HTS)]; assay type: functional
[15] = Luminescence Cell-Based Dose Response to Identify Activators of 5'UTR Stem-Loop Driven Prion Protein mRNA Translation in H4-C Neuroglioblastoma Cells. [Related pubchem assays: 1829 (Project Summary), 1814 (Primary HTS)]; assay type: functional
[16] = target: T2, Oxysterols receptor LXR-beta (Homo sapiens, UniProt P55055); assay type: functional, cell-based;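 further: agonist activity at LXR measured by a cell-based luminescence readout across a dose range, run as a counterscreen for daf-12 agonists; HEK293 cells with Gal4-LXR fusion and GAL4-driven luciferase reporter; potency for activation of Gal4-LXR reporter so compounds are agonists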
T2 sequence (P55055 whole entry): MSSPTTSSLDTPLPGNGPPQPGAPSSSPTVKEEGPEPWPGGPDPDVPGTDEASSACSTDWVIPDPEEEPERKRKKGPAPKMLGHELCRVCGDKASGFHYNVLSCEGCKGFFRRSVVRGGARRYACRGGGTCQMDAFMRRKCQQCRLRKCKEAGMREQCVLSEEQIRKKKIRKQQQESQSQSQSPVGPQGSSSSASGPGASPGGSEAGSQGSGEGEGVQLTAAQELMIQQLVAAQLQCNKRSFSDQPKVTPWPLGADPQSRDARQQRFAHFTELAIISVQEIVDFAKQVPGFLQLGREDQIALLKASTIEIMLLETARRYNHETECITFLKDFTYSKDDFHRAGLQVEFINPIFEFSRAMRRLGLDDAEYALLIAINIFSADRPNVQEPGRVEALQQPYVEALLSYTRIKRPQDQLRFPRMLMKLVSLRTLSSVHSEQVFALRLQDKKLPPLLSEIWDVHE

[17] = Luminescence Cell-Based Dose Response HTS to Identify Activators of Luciferase Translation or Activity in H4 […] Cells. [Related pubchem assays: 1829 (Project Summary), 1814 (Primary HTS)]; assay type: functional
[18] = target: T3, RNA-binding protein pos-1 (Caenorhabditis elegans, UniProt G5EF15); assay: inhibitors of POS-1/mex-3 RNA binding, dose response, biochemical, fluorescence polarization (AID 1964);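 further: purified POS-1 fused to maltose binding protein made in E. coli; potency of compounds blocking POS-1 binding to fluorescent RNA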
T3 sequence (G5EF15 whole entry): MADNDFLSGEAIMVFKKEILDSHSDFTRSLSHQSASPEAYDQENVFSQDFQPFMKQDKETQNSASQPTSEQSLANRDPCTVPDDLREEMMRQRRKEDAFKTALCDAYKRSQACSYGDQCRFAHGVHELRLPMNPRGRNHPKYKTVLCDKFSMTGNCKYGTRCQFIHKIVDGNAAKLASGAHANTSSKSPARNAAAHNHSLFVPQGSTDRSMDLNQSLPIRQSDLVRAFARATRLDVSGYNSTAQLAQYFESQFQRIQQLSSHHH

[19] = target: Nonstructural protein 1 (Influenza A virus, UniProt Q194T2); assay type: functional, Influenza A virus (A/California/07/2009(H1N1))
Sequence of Nonstructural protein 1 (Q194T2 whole entry): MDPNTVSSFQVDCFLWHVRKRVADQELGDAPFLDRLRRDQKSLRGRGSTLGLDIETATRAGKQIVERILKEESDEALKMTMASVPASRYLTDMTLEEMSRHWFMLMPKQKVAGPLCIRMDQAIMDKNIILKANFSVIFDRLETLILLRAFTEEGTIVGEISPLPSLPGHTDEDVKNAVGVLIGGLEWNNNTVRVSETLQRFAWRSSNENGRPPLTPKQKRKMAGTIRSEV

[20] = target: Genome polyprotein (dengue virus type 2, UniProt P29990); assay: Dengue-2 NS5 methyltransferase inhibitors, primary screen, biochemical, confirmation dose response (AID 588689); assay type: functional
Sequence of Genome polyprotein (P29990 2492-3391 limits assumed): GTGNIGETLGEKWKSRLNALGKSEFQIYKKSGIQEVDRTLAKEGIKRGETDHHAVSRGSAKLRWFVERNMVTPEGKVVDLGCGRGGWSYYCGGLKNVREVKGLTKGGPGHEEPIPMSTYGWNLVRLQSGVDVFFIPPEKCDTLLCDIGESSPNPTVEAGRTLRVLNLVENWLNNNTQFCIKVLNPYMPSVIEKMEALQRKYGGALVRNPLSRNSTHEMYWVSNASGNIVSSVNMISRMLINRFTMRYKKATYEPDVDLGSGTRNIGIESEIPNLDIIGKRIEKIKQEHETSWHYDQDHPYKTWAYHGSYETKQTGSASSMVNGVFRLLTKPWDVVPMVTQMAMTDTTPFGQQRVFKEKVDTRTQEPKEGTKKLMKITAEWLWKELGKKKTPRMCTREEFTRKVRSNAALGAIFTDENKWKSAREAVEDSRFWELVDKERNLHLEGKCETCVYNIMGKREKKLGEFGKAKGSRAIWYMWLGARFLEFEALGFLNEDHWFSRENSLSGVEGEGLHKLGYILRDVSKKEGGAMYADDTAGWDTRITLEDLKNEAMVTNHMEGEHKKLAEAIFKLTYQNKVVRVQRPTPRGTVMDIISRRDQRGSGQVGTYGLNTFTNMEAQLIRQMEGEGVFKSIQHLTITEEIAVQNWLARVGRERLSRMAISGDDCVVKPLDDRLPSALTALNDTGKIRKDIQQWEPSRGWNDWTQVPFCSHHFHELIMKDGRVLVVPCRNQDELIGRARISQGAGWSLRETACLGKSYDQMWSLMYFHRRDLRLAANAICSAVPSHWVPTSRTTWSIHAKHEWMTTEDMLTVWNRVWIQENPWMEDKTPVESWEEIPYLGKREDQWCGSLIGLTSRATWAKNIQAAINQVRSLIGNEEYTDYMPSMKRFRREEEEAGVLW

[21] = human group III sPLA2 inhibitors, dose response, biochemical, QFRET, IC50 (AID 743457);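 further: green fluorescence rise as the enzyme cleaves BODIPY PC-A2 in liposomes; potency for inhibition of the enzyme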
[22] = target: T4, Mannose-6-phosphate isomerase (Homo sapiens, UniProt P34949); assay: human PMI inhibitors, high substrate, primary screen, biochemical, fluorescence intensity, high mannose 6-phosphate (AID 1220)
T4 sequence (P34949 whole entry): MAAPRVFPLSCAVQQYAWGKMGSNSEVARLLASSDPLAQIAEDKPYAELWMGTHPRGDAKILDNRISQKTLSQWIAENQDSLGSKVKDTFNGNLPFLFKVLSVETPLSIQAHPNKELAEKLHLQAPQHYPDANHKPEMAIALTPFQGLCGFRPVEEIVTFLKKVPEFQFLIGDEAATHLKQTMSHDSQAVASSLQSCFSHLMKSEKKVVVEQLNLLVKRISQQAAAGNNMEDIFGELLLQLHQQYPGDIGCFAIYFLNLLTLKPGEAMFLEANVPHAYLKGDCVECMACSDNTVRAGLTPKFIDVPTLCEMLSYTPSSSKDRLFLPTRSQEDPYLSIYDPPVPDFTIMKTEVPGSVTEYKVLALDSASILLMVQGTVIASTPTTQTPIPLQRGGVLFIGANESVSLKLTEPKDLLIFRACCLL

[23] = C. albicans growth with fluconazole, confirmation, fluorescence, retest (AID 2467); assay type: functional, cell-based
[24] = NIH-3T3 fibroblast cytotoxicity, dose response, cytotoxicity control, cell-based, fluorescence, Alamar Blue, secondary assay (AID 2327); assay type: functional;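 further: NIH-3T3 mouse fibroblasts cultured with fluconazole at 8 µg/mL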
[25] = LGR2 antagonists, dose response, cell-based, HEK293, CRE-luciferase reporter, cherry pick, set 2 (AID 743343); assay type: functional;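 further: transfected cells were stimulated with diluted bursicon conditioned medium after compound addition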
[26] = HepG2 cell cytotoxicity, dose response, cytotoxicity control, plate reader, cherry-pick, antagonist series (AID 743416); assay type: functional, cell-based
[27] = THP-1 cell cytotoxicity, dose response, cytotoxicity control for non-replicating M. tuberculosis project (AID 489025); assay type: functional
[28] = HepG2 cell cytotoxicity, dose response, cytotoxicity control for non-replicating M. tuberculosis project (AID 489018); assay type: functional; conditions: Mycobacterium tuberculosis
[29] = Vero E6 cell cytotoxicity, dose response, cytotoxicity control for non-replicating M. tuberculosis project, secondary assay (AID 492998); assay type: functional, VeroE6; conditions: Vero C1008
[30] = system: INS1; assay: beta cell apoptosis inhibitors, cytokine rescue, dose response, luminescence, retest (AID 449756); assay type: functional, cell-based; conditions: Rattus norvegicus;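 further: cell death triggered by IL-1 beta plus TNF-alpha plus IFN-gamma mixture; protective hits raise ATP signal compared with cytokine alone wells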
[31] = A549 cell cytotoxicity, dose response, cytotoxicity control, plate reader, cherry-pick, antagonist series (AID 743412); assay type: functional, cell-based
[32] = cells; assay type: functional
[33] = target: FAD-linked sulfhydryl oxidase ALR (Homo sapiens, UniProt P55789); assay: inhibitors of human ALR sulfhydryl oxidase, dose response, biochemical, H2O2 detection, luminescence, cherry-pick (AID 493248)
Sequence of FAD-linked sulfhydryl oxidase ALR (P55789 whole entry, the tested form may be a part): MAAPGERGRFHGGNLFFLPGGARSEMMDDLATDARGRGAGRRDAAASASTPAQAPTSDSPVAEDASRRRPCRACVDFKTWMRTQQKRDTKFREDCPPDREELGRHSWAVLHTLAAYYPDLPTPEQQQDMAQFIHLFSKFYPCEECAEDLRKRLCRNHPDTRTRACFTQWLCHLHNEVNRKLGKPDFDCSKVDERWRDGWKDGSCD

[34] = target: T5, Carboxy-terminal domain RNA polymerase II polypeptide A small phosphatase 1 (Homo sapiens, UniProt Q9GZU7); assay: inhibitors of CTDSP1, concentration-response testing, biochemical assay, absorbance-based, actives from ultra-high-throughput screening (AID 540297); assay type: functional
T5 sequence (Q9GZU7 whole entry): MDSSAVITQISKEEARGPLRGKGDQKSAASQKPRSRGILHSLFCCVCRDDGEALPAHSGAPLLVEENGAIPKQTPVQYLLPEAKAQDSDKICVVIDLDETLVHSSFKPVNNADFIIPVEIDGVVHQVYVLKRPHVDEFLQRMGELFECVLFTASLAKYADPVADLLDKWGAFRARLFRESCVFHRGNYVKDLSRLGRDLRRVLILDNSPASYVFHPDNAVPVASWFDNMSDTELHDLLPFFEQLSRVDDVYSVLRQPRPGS

[35] = HEp-2 cell cytotoxicity, dose response, cytotoxicity control for RSV inhibitor project, HTS (AID 2410); assay type: functional; conditions: human respiratory syncytial virus
[36] = HEK293T cytotoxicity, dose response, cytotoxicity control for miR-122 modulator project, cell-based, activator set, cherry-pick (AID 720690); assay type: functional;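 further: HEK293T human cells scored for general mammalian cytotoxicity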

CN(c1ccc(OCC(=O)Nc2cc(Cl)ccc2C(=O)O)cc1)S(=O)(=O)c1ccc(F)cc1
AC50 [1]: 27.2 µM (active)

COc1cc(NC(=O)C/C(C)=N/NC(=O)Cc2ccccc2)c(OC)cc1Cl
IC50 [2]: > 69.5 µM (inactive)
IC50 [3]: > 69.5 µM (inactive)

C[C@H]1CN([C@@H](C)CO)S(=O)(=O)c2ccc(-c3ccccc3)cc2O[C@@H]1CN(C)Cc1cccc(F)c1
AC50 [4]: 7.93 µM (active)

COc1ccc(NS(=O)(=O)c2cccc(C(=O)N3CCCC(C)C3)c2)cc1 (stereo unspecified)
AC50 [5]: 28.4 µM (active)

COc1ccc(-c2ccc3c(N)c(C(=O)c4ccc(OC)c(OC)c4)sc3n2)cc1
IC50 [6]: 4.28 µM (active)

CC(C(=O)Nc1ccc(S(=O)(=O)N2CCOCC2)cc1)N1CCN(c2ccccn2)CC1 (stereo unspecified)
AC50 [5]: > 30 µM (inactive)

CC(C)CC(NC(=O)c1ccc(Cl)cc1)C(=O)OCC(=O)c1ccc2c(c1)NC(=O)CO2 (stereo unspecified)
AC50 [7]: 4.01 µM (active)
AC50 [4]: 6.45 µM (active)
EC50 [8]: 2.69 µM (active)
EC50 [9]: 4.38 µM (active)
AC50 [10]: 15.5 µM (active)
EC50 [11]: 6.2 µM (active)

c1ccc(Nc2ccccn2)cc1
IC50 [12]: > 100 µM (active)

CCOC(=O)c1cnc(SCc2ccccc2)nc1N
EC50 [13]: 0.23 µM (active)
EC50 [14]: 0.278 µM (active)
EC50 [15]: 0.342 µM (active)
EC50 [16]: > 67.5 µM (inactive)
EC50 [17]: < 0.1 µM (active)

Oc1ccc(/C=N/Nc2ccc(Cl)nn2)c(O)c1O
AC50 [1]: 1.1 µM (active)
EC50 [18]: 50 µM (inconclusive)
IC50 [19]: 2.08 µM (active)
IC50 [20]: 16.4 µM (active)

COc1cc(/C=C(\C#N)c2nc3ccccc3[nH]2)c([N+](=O)[O-])cc1OCc1ccccc1
IC50 [12]: > 100 µM (active)

O=c1c2ccccc2cnn1-c1ccc2ccccc2c1
EC50 [16]: > 67.5 µM (inactive)

O=C(O)c1ccc(Nc2nc(-c3ccccc3)nc3ccccc23)cc1
AC50 [5]: 17.9 µM (active)

Cc1cccc(C(=N)NOC(=O)c2cccs2)c1
EC50 [16]: > 67.5 µM (inactive)

COC(=O)C1=C(c2ccccc2OCc2ccccc2)C[C@@H]2CC[C@H]1N2C(=O)NCc1ccc(Cl)cc1
IC50 [2]: > 7.72 µM (active)
IC50 [3]: > 69.5 µM (inactive)

O=C(NNC(=S)NC1CCCCC1)c1ccccc1Cl
IC50 [21]: > 122 µM (inactive)

Cc1ccc(NC(=O)C(OC(=O)c2cc(C)oc2C)c2ccccc2)cc1 (stereo unspecified)
IC50 [2]: 24.5 µM (inactive)
IC50 [3]: > 69.5 µM (inactive)

COc1ccc(CNc2cc(NCCCO)c([N+](=O)[O-])c3nonc23)cc1
IC50 [22]: > 50 µM (not active)

CC(=O)c1c(C)[nH]c(C(=O)Nc2ccc(C)c(C)c2)c1C
EC50 [23]: > 38 µM (not active)
EC50 [24]: 72.3 µM (active)
IC50 [12]: > 100 µM (active)

COc1ccc(-n2c(SCC#N)nnc2-c2cccnc2)cc1
AC50 [4]: 16.7 µM (active)

Cc1cc(C)[n+]2ncn(C)c2n1
IC50 [22]: > 50 µM (not active)

CC(C)c1ccc2c(c1)C(N1CCNCC1)Cc1ccc(F)cc1S2 (stereo unspecified)
AC50 [25]: 38.2 µM (active)
EC50 [8]: 25.7 µM (active)
AC50 [26]: 7.87 µM (active)
CC50 [27]: 16.3 µM (active)
EC50 [23]: > 38 µM (not active)
CC50 [28]: 18.1 µM (active)
EC50 [9]: 11.6 µM (active)
CC50 [29]: 12.3 µM (active)
AC50 [30]: 6.71 µM (active)
AC50 [31]: 6.71 µM (active)
EC50 [24]: > 150 µM (inactive)
IC50 [32]: 14.2 µM (active)
EC50 [11]: > 120 µM (not active)

CSc1ccc(NC(=O)Nc2ccc(C(=O)NCC(=O)O)cc2)cc1
AC50 [1]: 18.4 µM (active)
AC50 [33]: 2.47 µM (active)
IC50 [34]: 3.17 µM (active)

COc1ccc2c(c1)C(C)=CC(C)(C)N2C(=O)CNCc1ccc2c(c1)OCO2
CC50 [35]: > 50 µM (active)
AC50 [36]: 40.4 µM (active)
